From PubChem BioAssay AID280 (DTP/NCI, 2004)
“And” between values parts separate entries of the source, which are not always exact repeats. Equal values may be shown once. Toxic doses and inconclusive results are not listed.

Tested on: nude mice, LOX melanoma ip, survival T/C
Experiment: NCI In Vivo Anticancer Drug Screen. Data for tumor model Human Amelanotic Melanoma (LOX) (intraperitoneal) in NU/NU BALB/C (nude) mice
Settings: endpoint: median survival time, higher = longer survival
Experimental: The antitumor activity of compounds was measured in mice bearing transplantable tumors. Survival or tumor size were measured and the results are expressed as the measurement made in the treated group (T) divided by the measurement made in the vehicle treated control group (C). The tumor model used in this assay is Human Amelanotic Melanoma (LOX) (intraperitoneal) in NU/NU BALB/C (nude) mice

[1] = dose: 37.5 mg/kg/injection, schedule: Q04DX003 (ip), vehicle: Klucel (hydroxypropylcellulose) (HPC)
[2] = dose: 75.0 mg/kg/injection, schedule: Q04DX003 (ip), vehicle: Klucel (hydroxypropylcellulose) (HPC)
[3] = dose: 150.0 mg/kg/injection, schedule: Q04DX003 (ip), vehicle: Klucel (hydroxypropylcellulose) (HPC)
[4] = dose: 300.0 mg/kg/injection, schedule: Q04DX003 (ip), vehicle: Klucel (hydroxypropylcellulose) (HPC)
[5] = dose: 75.0 mg/kg/injection, schedule: Q04DX003 (ip), vehicle: saline with Tween-80
[6] = dose: 150.0 mg/kg/injection, schedule: Q04DX003 (ip), vehicle: saline with Tween-80
[7] = dose: 300.0 mg/kg/injection, schedule: Q04DX003 (ip), vehicle: saline with Tween-80
[8] = dose: 600.0 mg/kg/injection, schedule: Q04DX003 (ip), vehicle: saline with Tween-80
[9] = dose: 1200.0 mg/kg/injection, schedule: Q04DX003 (ip), vehicle: saline with Tween-80

COc1ccc2c(c1)-c1nn(CCCN(C)C)c3ccc([N+](=O)[O-])c(c13)N2
T/C (dose: 5.8 mg/kg/injection, schedule: Q04HX006 (ip), vehicle: water): 116 % of control | T/C (dose: 8.8 mg/kg/injection, schedule: Q04HX006 (ip), vehicle: water): 119 % of control | T/C (dose: 13.3 mg/kg/injection, schedule: Q04DX003 (ip), vehicle: water): 117 % of control | T/C (dose: 13.3 mg/kg/injection, schedule: Q04HX006 (ip), vehicle: water): 123 % of control and 96 % of control | T/C (dose: 19.8 mg/kg/injection, schedule: Q04DX003 (ip), vehicle: water): 113 % of control | T/C (dose: 19.8 mg/kg/injection, schedule: Q04HX006 (ip), vehicle: water): 123 % of control | T/C (dose: 21.0 mg/kg/injection, schedule: Q04DX003 (ip), vehicle: water): 107 % of control | T/C (dose: 21.6 mg/kg/injection, schedule: Q04DX003 (ip), vehicle: water): 103 % of control | T/C (dose: 29.7 mg/kg/injection, schedule: Q04DX003 (ip), vehicle: water): 114 % of control | T/C (dose: 29.7 mg/kg/injection, schedule: Q04HX006 (ip), vehicle: water): 123 % of control | T/C (dose: 36.0 mg/kg/injection, schedule: Q04DX003 (ip), vehicle: water): 114 % of control and 93 % of control | T/C (dose: 44.5 mg/kg/injection, schedule: Q04DX003 (ip), vehicle: water): 114 % of control and 117 % of control | T/C (dose: 44.5 mg/kg/injection, schedule: Q04HX006 (ip), vehicle: water): 122 % of control | T/C (dose: 60.0 mg/kg/injection, schedule: Q04DX003 (ip), vehicle: water): 109 % of control and 114 % of control | T/C (dose: 66.7 mg/kg/injection, schedule: Q04DX003 (ip), vehicle: water): 118 % of control

O=C(Nc1cccc(O)c1)C(Cl)=C(Cl)Cl
T/C (dose: 6.25 mg/kg/injection, schedule: Q04DX003 (ip), vehicle: DMSO): 96 % of control | T/C (dose: 12.5 mg/kg/injection, schedule: Q04DX003 (ip), vehicle: DMSO): 91 % of control | T/C (dose: 25.0 mg/kg/injection, schedule: Q04DX003 (ip), vehicle: DMSO): 95 % of control | T/C (dose: 50.0 mg/kg/injection, schedule: Q04DX003 (ip), vehicle: DMSO): 94 % of control

C=C(C)/C([O-])=N/[N+](C)(C)CC(O)CCCCCCCCCCCC (stereo not given)
T/C (dose: 2.5 mg/kg/injection, schedule: Q04DX003 (ip), vehicle: Klucel (hydroxypropylcellulose) (HPC)): 88 % of control | T/C (dose: 5.0 mg/kg/injection, schedule: Q04DX003 (ip), vehicle: Klucel (hydroxypropylcellulose) (HPC)): 91 % of control | T/C (dose: 10.0 mg/kg/injection, schedule: Q04DX003 (ip), vehicle: Klucel (hydroxypropylcellulose) (HPC)): 91 % of control and 98 % of control | T/C (dose: 20.0 mg/kg/injection, schedule: Q04DX003 (ip), vehicle: Klucel (hydroxypropylcellulose) (HPC)): 101 % of control | T/C (dose: 40.0 mg/kg/injection, schedule: Q04DX003 (ip), vehicle: Klucel (hydroxypropylcellulose) (HPC)): 102 % of control and 105 % of control | T/C (dose: 80.0 mg/kg/injection, schedule: Q04DX003 (ip), vehicle: Klucel (hydroxypropylcellulose) (HPC)): 105 % of control | T/C (dose: 160.0 mg/kg/injection, schedule: Q04DX003 (ip), vehicle: Klucel (hydroxypropylcellulose) (HPC)): 87 % of control

C=CCOc1cc2c(cc1C(C)c1ccc(OC)cc1)OCO2 (stereo not given)
T/C [1]: 101 % of control | T/C [2]: 96 % of control | T/C [3]: 109 % of control | T/C [4]: 112 % of control

N=C(N)SCc1cccc2c(=O)cc(-c3ccccc3)oc12
T/C (dose: 25.0 mg/kg/injection, schedule: Q04DX003 (ip), vehicle: suspension in saline): 101 % of control | T/C (dose: 50.0 mg/kg/injection, schedule: Q04DX003 (ip), vehicle: suspension in saline): 111 % of control | T/C (dose: 100.0 mg/kg/injection, schedule: Q04DX003 (ip), vehicle: suspension in saline): 118 % of control | T/C (dose: 400.0 mg/kg/injection, schedule: Q04DX003 (ip), vehicle: suspension in saline): 124 % of control

COc1cccc2c1C(=O)c1c(O)c3c(c(O)c1C2=O)C[C@@](O)(C(=O)CO)C[C@@H]3OC1CC(N)C(O)C(C)O1 (stereo not given in full)
T/C (dose: 0.25 mg/kg/injection, schedule: Q01DX015 (ip), vehicle: water): 162 % of control | T/C (dose: 0.5 mg/kg/injection, schedule: Q01DX015 (ip), vehicle: water): 167 % of control | T/C (dose: 1.0 mg/kg/injection, schedule: Q01DX005 (ip), vehicle: water): 208 % of control | T/C (dose: 1.0 mg/kg/injection, schedule: Q01DX015 (ip), vehicle: water): 152 % of control | T/C (dose: 1.0 mg/kg/injection, schedule: Q04DX003 (ip), vehicle: water): 270 % of control | T/C (dose: 2.0 mg/kg/injection, schedule: Q01DX001 (ip), vehicle: water): 197 % of control | T/C (dose: 2.0 mg/kg/injection, schedule: Q04DX003 (ip), vehicle: water): 203 % of control | T/C (dose: 4.0 mg/kg/injection, schedule: Q01DX001 (ip), vehicle: water): 240 % of control | T/C (dose: 4.0 mg/kg/injection, schedule: Q04DX003 (ip), vehicle: saline): 107 % of control | T/C (dose: 4.0 mg/kg/injection, schedule: Q04DX003 (ip), vehicle: water): 151 % of control | T/C (dose: 4.0 mg/kg/injection, schedule: Q04DX003 (iv), vehicle: saline): 158 % of control | T/C (dose: 8.0 mg/kg/injection, schedule: Q04DX003 (ip), vehicle: saline): 122 % of control | T/C (dose: 8.0 mg/kg/injection, schedule: Q04DX003 (iv), vehicle: saline): 275 % of control | T/C (dose: 16.0 mg/kg/injection, schedule: Q04DX003 (ip), vehicle: saline): 101 % of control

O=C1c2ccccc2C(=O)c2c1cn1c2Cc2ccccc2C1
T/C (dose: 6.25 mg/kg/injection, schedule: Q04DX003 (ip), vehicle: Klucel (hydroxypropylcellulose) (HPC)): 91 % of control | T/C (dose: 25.0 mg/kg/injection, schedule: Q04DX003 (ip), vehicle: Klucel (hydroxypropylcellulose) (HPC)): 93 % of control | T/C (dose: 50.0 mg/kg/injection, schedule: Q04DX003 (ip), vehicle: Klucel (hydroxypropylcellulose) (HPC)): 109 % of control and 95 % of control | T/C (dose: 100.0 mg/kg/injection, schedule: Q04DX003 (ip), vehicle: Klucel (hydroxypropylcellulose) (HPC)): 90 % of control | T/C (dose: 200.0 mg/kg/injection, schedule: Q04DX003 (ip), vehicle: Klucel (hydroxypropylcellulose) (HPC)): 91 % of control | T/C (dose: 400.0 mg/kg/injection, schedule: Q04DX003 (ip), vehicle: Klucel (hydroxypropylcellulose) (HPC)): 95 % of control

Cc1cc(Br)c2nsnc2c1[N+](=O)[O-]
T/C [5]: 112 % of control | T/C [6]: 103 % of control | T/C [7]: 112 % of control | T/C [8]: 124 % of control | T/C [9]: 114 % of control

CC[C@@]1(O)C(=O)OCc2c1cc1n(c2=O)Cc2cc3c(N)cccc3nc2-1
T/C (dose: 0.5 mg/kg/injection, schedule: Q04DX003 (ip), vehicle: saline with Tween-80): 213 % of control | T/C (dose: 0.86 mg/kg/injection, schedule: Q04DX003 (ip), vehicle: saline with Tween-80): 314 % of control | T/C (dose: 1.0 mg/kg/injection, schedule: Q04DX003 (ip), vehicle: saline with Tween-80): 327 % of control | T/C (dose: 1.44 mg/kg/injection, schedule: Q04DX003 (ip), vehicle: saline with Tween-80): 314 % of control | T/C (dose: 2.0 mg/kg/injection, schedule: Q04DX003 (ip), vehicle: saline with Tween-80): 327 % of control | T/C (dose: 2.4 mg/kg/injection, schedule: Q04DX003 (ip), vehicle: saline with Tween-80): 314 % of control | T/C (dose: 4.0 mg/kg/injection, schedule: Q04DX003 (ip), vehicle: saline with Tween-80): 314 % of control and 327 % of control

COc1cc(C(=O)N/N=C/c2cccc([N+](=O)[O-])c2)cc(OC)c1OC
T/C (dose: 37.5 mg/kg/injection, schedule: Q04DX003 (ip), vehicle: saline with Tween-80): 98 % of control | T/C [5]: 101 % of control and 96 % of control | T/C [6]: 104 % of control and 105 % of control | T/C [7]: 98 % of control | T/C [8]: 105 % of control and 98 % of control | T/C [9]: 114 % of control

Cc1nc2c(N)cc(Cl)cc2[nH]1
T/C (dose: 50.0 mg/kg/injection, schedule: Q04DX003 (ip), vehicle: saline with Tween-80): 114 % of control | T/C (dose: 100.0 mg/kg/injection, schedule: Q04DX003 (ip), vehicle: saline with Tween-80): 112 % of control | T/C (dose: 200.0 mg/kg/injection, schedule: Q04DX003 (ip), vehicle: saline with Tween-80): 99 % of control

CC1=CC=CC(C)(C)C(O)C1=O (stereo not given)
T/C (dose: 18.75 mg/kg/injection, schedule: Q04DX003 (ip), vehicle: Klucel (hydroxypropylcellulose) (HPC)): 98 % of control | T/C [1]: 94 % of control | T/C [2]: 98 % of control | T/C [3]: 98 % of control | T/C [4]: 93 % of control
